Patent US4877893A, “Process for the preparation of 2-(O-alkyl)-2-thio-1,3,2-oxathiophospholanes” (priority 1987, dated 1989)

Columns and labels:
Assay in all cases: Fungicidal effect on infected agar nutrient media, colony diameter
Format in all cases: cell-based
[1] = tested on: Sclerotinia sclerotinia; details: 3rd day after treatment, untreated control 41.7
Description: (§1) Agar nutrient media (Diameter 70 MM, thickness 10 mm) infected by Sclerotonia sclerotinia suspension are treated with 20 EC formulations prepared according to Example 27 and comprising 1, 10, 100 and 1000 ppm, respectively of the active ingredient of the Formula I. The fungicidal effect of the compositions is evaluated on the 3rd day after treatment by measuring the diameter of the Fungi colonies.

[2] = tested on: Penicillium cyclopium; details: 7th day after treatment, untreated 26.5
Description: as §1
The series of measureents described in Example 35 is carried out except that the agar nutrient media are infected by a Penicillium cyclopium Fungi strain and the test is evaluated on the 7th day after treatment.

[3] = tested on: Alternaria tenuis; details: 5th day after treatment, untreated control 36.8
Description: as §1
The series of measurements according to Example 35 is carried out except that the agar nutrient media are infected by Alternaria Tenius and evaluation is accomplished on the 5th day after treatment.

SMILES | Diameter of colony (mm) ([1]; 1 ppm) | Diameter of colony (mm) ([1]; 10 ppm) | Diameter of colony (mm) ([1]; 100 ppm) | Diameter of colony (mm) ([1]; 1000 ppm) | Diameter of colony (mm) ([2]; 1 ppm) | Diameter of colony (mm) ([2]; 10 ppm) | Diameter of colony (mm) ([2]; 100 ppm) | Diameter of colony (mm) ([2]; 1000 ppm) | Diameter of colony (mm) ([3]; 1 ppm) | Diameter of colony (mm) ([3]; 10 ppm) | Diameter of colony (mm) ([3]; 100 ppm) | Diameter of colony (mm) ([3]; 1000 ppm)
S=P1(OCCBr)OCCS1 (stereo not drawn) [Compound 2, 2-(O-2'-bromoethyl)-2-thio-1,3,2-oxathiophospholane] | 32.9 | 29.3 | 3.1 | 0 | 24.6 | 19.0 | 8.4 | 0 | 30.9 | 26.1 | 5.3 | 0
S=P1(OCCI)OCCS1 (stereo not drawn) [Compound 3, 2-(O-2'-iodoethyl)-2-thio1,3,2-oxathiophospholane] | 37.4 | 30.0 | 2.1 | 0 | 25.0 | 18.6 | 7.1 | 0 | 34.6 | 22.4 | 6.8 | 0
CC1CSP(=S)(OCCCl)O1 (stereo not drawn) [Compound 4, 2-(0-2'-chloroethyl)-2-thio-5-methyl-1,3,2-oxathiophospholane] | 34.6 | 27.6 | 0 | 0 | 24.1 | 19.4 | 9.0 | 0 | 32.6 | 23.7 | 6.5 | 0
CC1CSP(=S)(OCCBr)O1 (stereo not drawn) [Compound 5] | 35.4 | 29.2 | 1.7 | 0 | 20.1 | 19.5 | 7.8 | 0 | 34.9 | 22.3 | 7.9 | 0
CC1CSP(=S)(OCCI)O1 (stereo not drawn) [Compound 6] | 39.3 | 30.0 | 1.0 | 0 | 21.3 | 17.3 | 9.0 | 0 | 35.5 | 21.0 | 6.0 | 0
CC1COP(=S)(OCCCl)S1 (stereo not drawn) [Compound 7] | 38.1 | 31.2 | 0 | 0 | 25.4 | 16.7 | 8.8 | 0 | 34.7 | 25.5 | 5.9 | 0
CC1COP(=S)(OCCBr)S1 (stereo not drawn) [Compound 8] | 37.6 | 29.9 | 1.0 | 0 | 20.0 | 18.3 | 7.9 | 0 | 30.1 | 26.1 | 6.4 | 0
CC1COP(=S)(OCCI)S1 (stereo not drawn) [Compound 9, 2-(0-2'-iodoethyl)-2-thio-4-methyl-1,3,2-oxathiophospholane] | 39.2 | 27.6 | 3.9 | 0 | 23.2 | 15.8 | 5.7 | 0 | 30.6 | 24.6 | 8.9 | 0
CC(CCl)OP1(=S)OCCS1 (stereo not drawn) [Compound 10, 2-(0-1'-methyl-2'-chloroethyl)-2-thio-1,3,2-oxathiophospholane] | 40.1 | 31.3 | 1.8 | 0 | 21.3 | 19.0 | 6.8 | 0 | 33.9 | 21.6 | 5.8 | 0
CC(CBr)OP1(=S)OCCS1 (stereo not drawn) [Compound 11] | 34.6 | 30.6 | 2.8 | 0 | 24.1 | 17.5 | 8.3 | 0 | 35.9 | 24.1 | 4.6 | 0
CC(CI)OP1(=S)OCCS1 (stereo not drawn) [Compound 12] | 35.9 | 27.4 | 3.7 | 0 | 25.8 | 16.1 | 4.7 | 0 | 34.5 | 22.0 | 4.8 | 0
CC(Cl)COP1(=S)OCCS1 (stereo not drawn) [Compound 13, 2-(0-2'-methyl-2'-chloroethyl)-2-thio-1,3,2-oxathiophospholane] | 33.9 | 32.1 | 1.7 | 0 | 24.5 | 19.2 | 7.5 | 0 | 32.2 | 25.8 | 5.1 | 0
CC(Br)COP1(=S)OCCS1 (stereo not drawn) [Compound 14] | 38.1 | 28.1 | 0 | 0 | 18.2 | 17.6 | 7.9 | 0 | 31.3 | 21.3 | 5.7 | 0
CC(I)COP1(=S)OCCS1 (stereo not drawn) [Compound 15] | 34.3 | 30.3 | 1.4 | 0 | 19.1 | 15.5 | 5.8 | 0 | 35.9 | 21.1 | 5.5 | 0
CC1OP(=S)(OCCCl)SC1C (stereo not drawn) [Compound 16, 2-(0-2'-chloroethyl)-2-thio-4,5-dimethyl-1,3,2-oxathiophospholane] | 39.4 | 27.6 | 1.7 | 0 | 23.2 | 18.1 | 6.6 | 0 | 34.4 | 22.0 | 6.3 | 0
CC1OP(=S)(OCCBr)SC1C (stereo not drawn) [Compound 17] | 40.1 | 30.2 | 1.0 | 0 | 24.9 | 14.2 | 8.9 | 0 | 33.2 | 23.9 | 5.6 | 0
CC1OP(=S)(OCCI)SC1C (stereo not drawn) [Compound 18] | 38.2 | 28.0 | 1.5 | 0 | 25.2 | 14.2 | 6.3 | 0 | 35.8 | 22.8 | 5.3 | 0
